According to patent US12365695B2, “Fused ring heteroaryl compounds as RIPK1 inhibitors” (BiSiChem Co., Ltd., priority 2019, dated 2025):

Test system: HT-29 cells
Experiment: Cell-based necroptosis assay for RIPK1 activity (cell viability, CCK-8)
Settings: HT29 (human colon cancer), Z-VAD-FMK 20 μM, human TNFα 10 ng/ml, SM-164 100 nM, 24 h, read-out: Necroptosis inhibition (IC50)
Experimental: Human colon carcinoma cell HT-29 (KCLB 30038), BV2 mouse microglial cell (cell was a kind gift from Dr. Nak-Yun Sung, Senior researcher at Korea Prime Pharmacy CO., LTD.) and human microglial cell HMC3 (ATCC® CRL-3304™). HT-29 cell was grown in Roswell Park Memorial Institute (RPMI) 1640, BV2 cell was grown in Dulbecco's Modified Eagle's Medium (DMEM) and HMC3 cell was grown in Minimum Essential Media Eagle (MEM) supplemented with 10% fetal bovine serum and 1% mixture of penicillin and streptomycin (Gibco). Cells were maintained at 37° C. in a humidified 5% CO2 atmosphere.
To measure the activity of RIPK1 inhibitor in necroptotic cells, HT-29 cells were treated by control DMSO, human TNFα (Peprotech, Rocky Hill, USA), SM-164 (Biovision, California, USA) and a pan-caspase inhibitor Z-VAD-FMK (Invivogen, San Diego, USA). Cells were pretreated with Z-VAD-FMK 20 μM. After 30 min, human TNFα 10 ng/ml, SM-164 100 nM and RIPK1 Inhibitor (0.0001, 0.001, 0.01, 0.02, 0.05, 0.1, 1, 10 uM) were treated for 24 h. Cell viability was measured by Cell Counting Kit 8 (CCK-8) (Dong-in, Seoul, Korea).

| SMILES | IC50 [nM] |
| --- | --- |
| CN1C(=O)[C@@H](NC(=O)n2cc(Cc3ccccc3)cn2)COc2ccnc(F)c21 [Example 32, (S)-4-benzyl-N-(6-fluoro-5-methyl-4-oxo-2,3,4,5-tetrahydropyrido[4,3-b][1,4]oxazepin-3-yl)-1H-pyrazole-1-carboxamide] | < 10 |
| CN1C(=O)[C@@H](NC(=O)n2cc(Cc3cccc(F)c3)cn2)COc2ccnc(F)c21 [Example 33, (S)—N-(6-fluoro-5-methyl-4-oxo-2,3,4,5-tetrahydropyrido[4,3-b][1,4]oxazepin-3-yl)-4-(3-fluorobenzyl)-1H-pyrazole-1-carboxamide] | < 100 |
| CN1C(=O)[C@@H](NC(=O)n2cc(Cc3ccccc3)cn2)COc2cc(F)ncc21 [Example 34, (S)-4-benzyl-N-(8-fluoro-5-methyl-4-oxo-2,3,4,5-tetrahydropyrido[4,3-b][1,4]oxazepin-3-yl)-1H-pyrazole-1-carboxamide] | < 10 |
| CN1C(=O)[C@@H](NC(=O)n2cc(Cc3cccc(F)c3)cn2)COc2cc(F)ncc21 [Example 35, (S)—N-(8-fluoro-5-methyl-4-oxo-2,3,4,5-tetrahydropyrido[4,3-b][1,4]oxazepin-3-yl)-4-(3-fluorobenzyl)-1H-pyrazole-1-carboxamide] | < 10 |
| CN1C(=O)[C@@H](NC(=O)n2cc(Cc3ccccc3)cn2)COc2cc(Cl)ncc21 [Example 36, (S)-4-benzyl-N-(8-chloro-5-methyl-4-oxo-2,3,4,5-tetrahydropyrido[4,3-b][1,4]oxazepin-3-yl)-1H-pyrazole-1-carboxamide] | < 10 |
| Cc1cc2c(cn1)N(C)C(=O)[C@@H](NC(=O)n1cc(Cc3ccccc3)cn1)CO2 [Example 37, (S)-4-benzyl-N-(5,8-dimethyl-4-oxo-2,3,4,5-tetrahydropyrido[4,3-b][1,4]oxazepin-3-yl)-1H-pyrazole-1-carboxamide] | < 10 |
